According to article PMC3265452 (PLoS Neglected Tropical Diseases, 2012):
Structures can show the parent of a compound that is named as a salt. Where two headings read alike, the source gives them in different places.

Target: AaDOP2 (Aedes aegypti, UniProt H6D5H2)
Experiment: AaDOP2 antagonist screen of the LOPAC1280 library (HEK-CRELuc-Aadop2 cells, luminescence)
Format: cell-based
[1] = 10 µM compound, 300 nM dopamine, 2 hr, hit = compound effect <20

Chain of AaDOP2 (H6D5H2 1-476): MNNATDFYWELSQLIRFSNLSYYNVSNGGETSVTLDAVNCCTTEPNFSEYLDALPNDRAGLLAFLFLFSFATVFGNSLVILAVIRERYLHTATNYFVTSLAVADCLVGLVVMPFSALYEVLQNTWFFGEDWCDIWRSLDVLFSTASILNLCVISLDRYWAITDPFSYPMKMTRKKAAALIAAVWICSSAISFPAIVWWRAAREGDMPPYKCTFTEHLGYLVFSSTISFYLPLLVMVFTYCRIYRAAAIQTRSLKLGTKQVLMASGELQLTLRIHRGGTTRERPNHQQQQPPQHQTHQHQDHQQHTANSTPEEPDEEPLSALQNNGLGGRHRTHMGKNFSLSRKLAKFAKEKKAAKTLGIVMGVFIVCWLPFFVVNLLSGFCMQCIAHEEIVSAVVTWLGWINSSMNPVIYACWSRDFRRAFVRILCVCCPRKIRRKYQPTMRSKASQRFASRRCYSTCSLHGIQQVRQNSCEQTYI

In the case of `Cl.NCCCCCCNS(=O)(=O)c1cccc2c(Cl)cccc12` [Compound 40, W-7 hydrochloride], the “Compound effect (percent receptor signaling in presence of test compound, relative lux units relative to the SCH23390 control)” value [1] is reported as 87%.
For `Cl.NC1C=CC=C(C(=O)O)C1` (stereo not shown) [Compound 41, Gabaculine hydrochloride], the “Compound effect (percent receptor signaling in presence of test compound, relative lux units relative to the SCH23390 control)” value was 106.
For `CC1=C(C)C(=O)C(CCCCC#CCCCC#CCO)=C(C)C1=O` [Compound 43, AA-861], the “Compound effect (percent receptor signaling in presence of test compound, relative lux units relative to the SCH23390 control)” value was 69.
In the case of `Cl.Nc1c2c(nc3ccccc13)CCCC2` [Compound 44, 9-Amino-1,2,3,4-tetrahydroacridine hydrochloride], the “Compound effect (percent receptor signaling in presence of test compound, relative lux units relative to the SCH23390 control)” value is reported as 206.
With `O=C(O)CCC/C=C\C[C@@H]1[C@@H](/C=C/[C@H](O)C2Cc3ccccc3C2)[C@@H](F)C[C@@H]1O` [Compound 45, AL-8810] the “Compound effect (percent receptor signaling in presence of test compound, relative lux units relative to the SCH23390 control)” value was 102.
`Nn1nnc2ccccc21` [Compound 46, 1-Aminobenzotriazole] was tested, and the “Compound effect (percent receptor signaling in presence of test compound, relative lux units relative to the SCH23390 control)” value was 141.
In the case of `NCCCS(=O)(=O)O.[Na]` [Compound 47, 3-Amino-1-propanesulfonic acid sodium], the “Compound effect (percent receptor signaling in presence of test compound, relative lux units relative to the SCH23390 control)” value [1] is reported as 94%.
In the case of `CN1CCc2cccc3c2[C@H]1Cc1ccc(O)c(O)c1-3` [Compound 48, Apomorphine hydrochloride hemihydrate], the “Compound effect (percent receptor signaling in presence of test compound, relative lux units relative to the SCH23390 control)” value is reported as 54.
In the case of `Cl.NOCC(=O)O.NOCC(=O)O` [Compound 49, O-(Carboxymethyl)hydroxylamine hemihydrochloride], the “Compound effect (percent receptor signaling in presence of test compound, relative lux units relative to the SCH23390 control)” value [1] is reported as 97%.
For `CN(C)c1nc(N)c(C(=O)NC(=N)N)nc1Cl` [Compound 50, 5-(N,N-Dimethyl)amiloride hydrochloride], the “Compound effect (percent receptor signaling in presence of test compound, relative lux units relative to the SCH23390 control)” value was 108.
In the case of `Cn1cnc([N+](=O)[O-])c1Sc1ncnc2nc[nH]c12` [Compound 51, Azathioprine], the “Compound effect (percent receptor signaling in presence of test compound, relative lux units relative to the SCH23390 control)” value is reported as 103.
In the case of `Nc1nc2c(ncn2COCCO)c(=O)[nH]1` [Compound 52, Acyclovir], the “Compound effect (percent receptor signaling in presence of test compound, relative lux units relative to the SCH23390 control)” value is reported as 90.
For `CN(C)CCCO[C@@H]1[C@H]2OC(C)(C)O[C@H]2O[C@@H]1[C@H](O)CO` [Compound 53, Amiprilose hydrochloride], the “Compound effect (percent receptor signaling in presence of test compound, relative lux units relative to the SCH23390 control)” value was 99.
`O=C1Cc2c([nH]c3ccc([N+](=O)[O-])cc23)-c2ccccc2N1` [Compound 54, Alsterpaullone] was tested, and the “Compound effect (percent receptor signaling in presence of test compound, relative lux units relative to the SCH23390 control)” value was 92.
In the case of `N=C(N)NCCC[C@H](N)C(=O)O` [Compound 56, L-Arginine], the “Compound effect (percent receptor signaling in presence of test compound, relative lux units relative to the SCH23390 control)” value is reported as 94.
`CC(=O)N[C@@H](Cc1c[nH]c2ccccc12)C(=O)OCc1cc(C(F)(F)F)cc(C(F)(F)F)c1` [Compound 59, L-732,138] was tested, and the “Compound effect (percent receptor signaling in presence of test compound, relative lux units relative to the SCH23390 control)” value was 100.
In the case of `CC(=O)Oc1ccccc1C(=O)O` [Compound 60, Acetylsalicylic acid], the “Compound effect (percent receptor signaling in presence of test compound, relative lux units relative to the SCH23390 control)” value is reported as 87.
`CC(C)CN(C)c1nc(N)c(C(=O)N=C(N)N)nc1Cl` [Compound 61, 5-(N-Methyl-N-isobutyl)amiloride] was tested, and the “Compound effect (percent receptor signaling in presence of test compound, relative lux units relative to the SCH23390 control)” value was 72.
For `CC(=O)SCC[N+](C)(C)C.[Cl-]` [Compound 62, Acetylthiocholine chloride], the “Compound effect (percent receptor signaling in presence of test compound, relative lux units relative to the SCH23390 control)” value was 122.
For `C[C@]12CCC(=O)C(O)=C1CC[C@@H]1[C@@H]2CC[C@]2(C)C(=O)CC[C@@H]12` [Compound 63, 4-Androsten-4-ol-3,17-dione], the “Compound effect (percent receptor signaling in presence of test compound, relative lux units relative to the SCH23390 control)” value was 107.
In the case of `Br.Br.N=C(N)SCCN` [Compound 64, 2-(2-Aminoethyl)isothiourea dihydrobromide], the “Compound effect (percent receptor signaling in presence of test compound, relative lux units relative to the SCH23390 control)” value is reported as 104.
For `CCN(CC)CCNC(=O)c1ccc(NC(C)=O)cc1.Cl` [Compound 65, N-Acetylprocainamide hydrochloride], the “Compound effect (percent receptor signaling in presence of test compound, relative lux units relative to the SCH23390 control)” value [1] was 126%.
`C[C@H](CCC(=O)NCCS(=O)(=O)O)[C@H]1CC[C@H]2[C@@H]3[C@H](O)C[C@@H]4C[C@H](O)CC[C@]4(C)[C@H]3C[C@H](O)[C@]12C` [Compound 66, Sodium Taurocholate] was tested, and the “Compound effect (percent receptor signaling in presence of test compound, relative lux units relative to the SCH23390 control)” value was 115.
In the case of `NCCCNCCSP(=O)(O)O` [Compound 67, Amifostine], the “Compound effect (percent receptor signaling in presence of test compound, relative lux units relative to the SCH23390 control)” value is reported as 111.
For `CC(=O)Nc1nnc(S(N)(=O)=O)s1` [Compound 68, Acetazolamide], the “Compound effect (percent receptor signaling in presence of test compound, relative lux units relative to the SCH23390 control)” value was 106.
In the case of `COC(=O)C1=CCCN(C)C1` [Compound 69, Arecoline hydrobromide], the “Compound effect (percent receptor signaling in presence of test compound, relative lux units relative to the SCH23390 control)” value is reported as 104.
`CCS(=O)(=O)Nc1cccc(C(=C2CCCCC2)c2cnc[nH]2)c1` [Compound 70, A-315456] was tested, and the “Compound effect (percent receptor signaling in presence of test compound, relative lux units relative to the SCH23390 control)” value was 111.
For `COc1ccc(CNC(=O)/C=C/c2ccc3[nH]cc(CCN(C)C)c3c2)cc1` [Compound 71, GR 4661], the “Compound effect (percent receptor signaling in presence of test compound, relative lux units relative to the SCH23390 control)” value was 114.
For `NCC(O)(CS(=O)(=O)O)c1ccc(Cl)cc1` (stereo not shown) [Compound 72, 2-Hydroxysaclofen], the “Compound effect (percent receptor signaling in presence of test compound, relative lux units relative to the SCH23390 control)” value [1] was 110%.
In the case of `CCCCC[C@H](CC(=O)NO)C(=O)N[C@H](C(=O)N1CCC[C@H]1CO)C(C)C` [Compound 73, Actinonin], the “Compound effect (percent receptor signaling in presence of test compound, relative lux units relative to the SCH23390 control)” value is reported as 96.
`CN(Cc1cnc2nc(N)nc(N)c2n1)c1ccc(C(=O)N[C@@H](CCC(=O)O)C(=O)O)cc1` [Compound 74, Methotrexate] was tested, and the “Compound effect (percent receptor signaling in presence of test compound, relative lux units relative to the SCH23390 control)” value was 89.
With `C[N+]1(C)[C@@H]2CC[C@H]1C[C@@H](OC(=O)C(CO)c1ccccc1)C2` (stereo partly shown) [Compound 75, Atropine methyl bromide] the “Compound effect (percent receptor signaling in presence of test compound, relative lux units relative to the SCH23390 control)” value was 105.
`CCNC(=O)N1CCN(CCCC(c2ccc(F)cc2)c2ccc(F)cc2)CC1` [Compound 76, Amperozide hydrochloride] was tested, and the “Compound effect (percent receptor signaling in presence of test compound, relative lux units relative to the SCH23390 control)” value was 17 and the inhibition at 10 µM (read-out: % of the SCH23390 effect (percent inhibition of receptor response relative to the SCH23390 control)) was 83%.
`NN=C(N)N.NN=C(N)N.O=S(=O)(O)O` [Compound 77, Aminoguanidine hemisulfate] was tested, and the “Compound effect (percent receptor signaling in presence of test compound, relative lux units relative to the SCH23390 control)” value [1] was 107%.
With `NCCCCN=C(N)N` [Compound 78, Agmatine sulfate] the “Compound effect (percent receptor signaling in presence of test compound, relative lux units relative to the SCH23390 control)” value was 113.
In the case of `Cl.Cl.N=C(N)c1ccc(N)cc1` [Compound 79, 4-Aminobenzamidine dihydrochloride], the “Compound effect (percent receptor signaling in presence of test compound, relative lux units relative to the SCH23390 control)” value is reported as 106.
For `NCCCP(=O)(O)O` [Compound 80, 3-Aminopropylphosphonic acid], the “Compound effect (percent receptor signaling in presence of test compound, relative lux units relative to the SCH23390 control)” value was 101.
With `CC(=O)N[C@@H](CS)C(=O)O` [Compound 81, N-Acetyl-L-Cysteine] the “Compound effect (percent receptor signaling in presence of test compound, relative lux units relative to the SCH23390 control)” value was 101.
`N[C@@H](CCCC(=O)O)C(=O)O` [Compound 82, L-2-aminoadipic acid] was tested, and the “Compound effect (percent receptor signaling in presence of test compound, relative lux units relative to the SCH23390 control)” value was 96.
With `CC(=O)NCCc1c[nH]c2ccccc12` [Compound 83, N-Acetyltryptamine] the “Compound effect (percent receptor signaling in presence of test compound, relative lux units relative to the SCH23390 control)” value was 42.
In the case of `N=C(N)NC(=O)c1nc(Cl)c(N)nc1N` [Compound 84, Amiloride hydrochloride], the “Compound effect (percent receptor signaling in presence of test compound, relative lux units relative to the SCH23390 control)” value is reported as 110.
With `C[C@]12CC[C@@H](O)C[C@@H]1CC[C@@H]1[C@@H]2CC[C@]2(C)[C@@H](O)CC[C@@H]12` [Compound 86, 5alpha-Androstane-3alpha,17beta-diol] the “Compound effect (percent receptor signaling in presence of test compound, relative lux units relative to the SCH23390 control)” value was 98.
`C=CC[C@H](N)C(=O)O` [Compound 87, L-allylglycine] was tested, and the “Compound effect (percent receptor signaling in presence of test compound, relative lux units relative to the SCH23390 control)” value was 107.
`Cl.Cl.NCCNS(=O)(=O)c1cccc2cnccc12` [Compound 88, H-9 dihydrochloride] was tested, and the “Compound effect (percent receptor signaling in presence of test compound, relative lux units relative to the SCH23390 control)” value [1] was 64%.
`NCCCCCC(=O)O` [Compound 89, 6-Aminohexanoic acid] was tested, and the “Compound effect (percent receptor signaling in presence of test compound, relative lux units relative to the SCH23390 control)” value was 120.
For `Oc1ncnc2[nH]ncc12` [Compound 91, Allopurinol], the “Compound effect (percent receptor signaling in presence of test compound, relative lux units relative to the SCH23390 control)” value was 101.
For `CCCCc1oc2ccccc2c1C(=O)c1cc(I)c(OCCN(CC)CC)c(I)c1` [Compound 93, Amiodarone hydrochloride], the “Compound effect (percent receptor signaling in presence of test compound, relative lux units relative to the SCH23390 control)” value was 104.
For `Cl.NCCc1ccc(S(=O)(=O)F)cc1` [Compound 94, 4-(2-Aminoethyl)benzenesulfonyl fluoride hydrochloride], the “Compound effect (percent receptor signaling in presence of test compound, relative lux units relative to the SCH23390 control)” value was 105.
In the case of `N=c1ccn2c(n1)O[C@H]1[C@H](O)[C@@H](CO)O[C@H]12` [Compound 95, Ancitabine hydrochloride], the “Compound effect (percent receptor signaling in presence of test compound, relative lux units relative to the SCH23390 control)” value is reported as 119.
With `C=CCc1ccccc1OCC(O)CNC(C)C` (stereo not shown) [Compound 96, Alprenolol hydrochloride] the “Compound effect (percent receptor signaling in presence of test compound, relative lux units relative to the SCH23390 control)” value was 104.
For `CN(C)c1nc(N(C)C)nc(N(C)C)n1` [Compound 97, Altretamine], the “Compound effect (percent receptor signaling in presence of test compound, relative lux units relative to the SCH23390 control)” value was 105.
In the case of `CC(=O)NCCc1ccc(O)c(O)c1.O` [Compound 98, N-Acetyldopamine monohydrate], the “Compound effect (percent receptor signaling in presence of test compound, relative lux units relative to the SCH23390 control)” value [1] is reported as 95%.
In the case of `Cl.N=C(N)NN` [Compound 99, Aminoguanidine hydrochloride], the “Compound effect (percent receptor signaling in presence of test compound, relative lux units relative to the SCH23390 control)” value [1] is reported as 107%.
`C=CC[N+](C)(C)c1ccc(CCC(=O)CCc2ccc([N+](C)(C)CC=C)cc2)cc1.[Br-].[Br-]` [Compound 100, BW 284c51] was tested, and the “Compound effect (percent receptor signaling in presence of test compound, relative lux units relative to the SCH23390 control)” value was 93.
